Consider 49 compounds from US11384079B2, “6-5 fused rings as C5a inhibitors” (CHEMOCENTRYX, INC., priority 2017, dated 2022).

This experiment has as its target T1, C5aR (Homo sapiens, UniProt P21730).
T1 construct: U937 cells are a monocytic cell line which express C5aR; host or cells: U937 cells (cAMP treated) or isolated neutrophils
T1 sequence (P21730 1-350): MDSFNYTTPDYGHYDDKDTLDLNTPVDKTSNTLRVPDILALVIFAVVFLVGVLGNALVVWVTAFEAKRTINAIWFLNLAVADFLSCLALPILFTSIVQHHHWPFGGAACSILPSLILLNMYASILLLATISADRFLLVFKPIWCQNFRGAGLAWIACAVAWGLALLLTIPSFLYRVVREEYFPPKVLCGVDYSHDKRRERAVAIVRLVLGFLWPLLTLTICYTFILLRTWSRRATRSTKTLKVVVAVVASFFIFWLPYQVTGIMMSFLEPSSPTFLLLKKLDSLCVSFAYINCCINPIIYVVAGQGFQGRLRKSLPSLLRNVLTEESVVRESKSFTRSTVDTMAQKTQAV
Nature of the experiment: chemotaxis assay (C5aR mediated migration). The experiment is classed as cell-based. The conditions noted are these: migration of U937 or neutrophil cells toward C5a (0.03 nM), 1.5 hours at 37° C., read-out: Mig IC50. As to the method: U937 cells are a monocytic cell line which express C5aR, and are available from ATCC (VA). […] Cells were grown under 5% CO2/95% air, 100% humidity at 37° C. and subcultured twice weekly at 1:6 (cells were cultured at a density range of 1×10^5 to 2×10^6 cells/mL) and harvested at 1×10^6 cells/mL. Prior to assay, cells are treated overnight with 0.5 mM of cyclic AMP (Sigma, Ohio) and washed once prior to use. cAMP treated U937 cells can be used in C5aR ligand binding and functional assays.
Optionally, human or murine neutrophils can be used to assay for compound activity. Neutrophils may be isolated from fresh human blood using density separation and centrifugation. Briefly, whole blood is incubated with equal parts 3% dextran and allowed to separate for 45 minutes. After separation, the top layer is layered on top of 15 mls of Ficoll (15 mls of Ficoll for every 30 mls of blood suspension) and centrifuged for 30 minutes at 400×g with no brake. The pellet at the bottom of the tube is then isolated and resuspended into PharmLyse RBC Lysis Buffer (BD Biosciences, San Jose, Calif.) after which the sample is again centrifuged for 10 minutes at 400×g with brake. The remaining cell pellet is resuspended as appropriate and consists of isolated neutrophils.
Optionally, compounds may be further assayed for their ability to inhibit chemotaxis in cells. Chemotaxis assays are performed using 5 μm pore polycarbonate, polyvinylpyrrolidone-coated filters in 96-well chemotaxis chambers (Neuroprobe; Gaithersburg, Md.) using chemotaxis buffer (Hank's balanced salt solution (HBSS) and 1% FBS). C5aR ligands (i.e., C5a, R&D Systems; Minneapolis, Minn.) are use to evaluate compound mediated inhibition of C5aR mediated migration. Other chemokines (i.e., SDF-1α; R&D Systems; Minneapolis, Minn.) are used as specificity controls. […] The chambers are incubated 1.5 hours at 37° C., and the number of cells in the lower chamber quantified either by direct cell counts in five high powered fields per well or by the CyQuant assay (Molecular Probes), a fluorescent dye method that measures nucleic acid content and microscopic observation.
In the case of `CCc1cccc(CC)c1-n1nc2c(c1-c1ccc(Cl)c3[nH]ccc13)CN(c1ncc(C3CC3)cc1Cl)CC2` [Example 1.073], the IC50 – broadly, the concentration needed to halve the response being measured – was less than 5 nM. `CCc1cccc(CC)c1-n1nc2c(c1-c1ccc(Cl)c3[nH]ccc13)CN(c1ncc(C(C)(C)O)cn1)CC2` [Example 1.074]: the IC50 was less than 5 nM. The result for `CCc1cccc(CC)c1-n1nc2c(c1-c1ccc(Cl)c3[nH]ccc13)CN(c1ncc(C)c(C(=O)O)n1)CC2` [Example 1.075] reads 50 to 500 nM.

For `CCc1cccc(CC)c1-n1nc2c(c1-c1c(F)cc(Cl)c3[nH]ccc13)CN(c1ncc(C(=O)N3CCCC3)cn1)CC2` [Example 1.076], the IC50 is less than 5 nM. The result for `CCc1cccc(CC)c1-n1nc2c(c1-c1cc(F)c(CO)c3[nH]ccc13)CN(c1ncc(C(F)(F)F)cn1)CC2` [Example 1.077] reads less than 5 nM; that for `CCc1cccc(CC)c1-n1nc2c(c1-c1cc(F)c(CO)c3[nH]ccc13)CN(c1ncc(C(F)(F)F)cc1F)CC2` [Example 1.078], less than 5 nM. The result for `CCc1cccc(CC)c1-n1nc2c(c1-c1ccc(F)c3[nH]ncc13)CN(c1ncc(C(F)(F)F)cc1F)CC2` [Example 1.079] reads 50 to 500 nM. `CCc1cccc(CC)c1-n1nc2c(c1-c1cc(Cl)c(C)c3[nH]ccc13)CN(c1ncc(C(F)(F)F)cc1F)CC2` [Example 1.080]: the IC50 is less than 5 nM. `CCc1cccc(CC)c1-n1nc2c(c1-c1cc(Cl)c(C)c3[nH]ccc13)CN(c1ncc(C(F)(F)F)cn1)CC2` [Example 1.081]: the IC50 was less than 5 nM. The result for `CCc1cccc(CC)c1-n1nc2c(c1-c1ccc3[nH]ccc3c1)CN(c1ncc(C(F)(F)F)cc1F)CC2` [Example 1.082] reads 5 to 50 nM; that for `CCc1cccc(CC)c1-n1nc2c(c1-c1cc(F)c3[nH]ccc3c1)CN(c1ncc(C(F)(F)F)cc1F)CC2` [Example 1.083], 5 to 50 nM; that for `CCc1cccc(CC)c1-n1nc2c(c1-c1cc(F)c(Cl)c3[nH]ccc13)CN(c1ncc(C(F)(F)F)cn1)CC2` [Example 1.084], less than 5 nM. The result for `CCc1cccc(CC)c1-n1nc2c(c1-c1cc(F)c(Cl)c3[nH]ccc13)CN(c1ncc(C(F)(F)F)cc1F)CC2` [Example 1.085] reads less than 5 nM; that for `CCc1cccc(CC)c1-n1nc2c(c1-c1ccc(Cl)c3[nH]ccc13)CN(c1ccc(OC(F)(F)F)cn1)CC2` [Example 1.086], less than 5 nM; that for `CCc1cccc(CC)c1-n1nc2c(c1-c1ccc(OC)c3[nH]ccc13)CN(c1ncc(C(F)(F)F)cn1)CC2` [Example 1.087], 5 to 50 nM. The result for `CCc1cccc(CC)c1-n1nc2c(c1-c1ccc(Cl)c3[nH]ccc13)CN(c1ncc(C(F)(F)F)cc1C)CC2` [Example 1.088] reads less than 5 nM. As for `CCc1cccc(CC)c1-n1nc2c(c1-c1ccc(OC)c3[nH]ccc13)CN(c1ncc(C(F)(F)F)cc1F)CC2` [Example 1.089], the IC50 fell in the range of 5 to 50 nM. The result for `Cc1cccc(C)c1-n1nc2c(c1-c1c(F)cc(CO)c3[nH]ccc13)CN(c1ncc(C(F)(F)F)cn1)CC2` [Example 1.090] reads 5 to 50 nM; that for `Cc1cccc(C)c1-n1nc2c(c1-c1c(F)cc(C)c3[nH]ccc13)CN(c1ncc(Cl)cc1F)CC2` [Example 1.091], 5 to 50 nM. The result for `Cc1cccc(C)c1-n1nc2c(c1-c1c(F)cc(C)c3[nH]ccc13)CN(c1ncc(C(F)(F)F)cn1)CC2` [Example 1.092] reads less than 5 nM; that for `CCc1cccc(CC)c1-n1nc2c(c1-c1cc(F)c(C)c3[nH]ccc13)CN(c1ncc(C(F)(F)F)cn1)CC2` [Example 1.093], less than 5 nM. The result for `CCc1cccc(CC)c1-n1nc2c(c1-c1c(F)cc(CO)c3[nH]ccc13)CN(c1ncc(C(C)C)cc1F)CC2` [Example 1.094] reads less than 5 nM; that for `Cc1cccc(C)c1-n1nc2c(c1-c1c(F)cc(C)c3[nH]ccc13)CN(c1ncc(C(F)(F)F)cc1F)CC2` [Example 1.095], less than 5 nM.

With `Cc1cccc(C)c1-n1nc2c(c1-c1c(F)cc(C)c3[nH]ccc13)CN(c1ncc(C(C)C)cn1)CC2` [Example 1.096], the 50% inhibitory concentration (IC50) was less than 5 nM.

`CCc1cccc(CC)c1-n1nc2c(c1-c1ccc(Cl)c3[nH]ccc13)CN(c1ncc(CO)cn1)CC2` [Example 1.097]: the half-maximal inhibitory concentration (IC50) was in the range of 5 to 50 nM.

With `CCc1cccc(CC)c1-n1nc2c(c1-c1c(F)cc(CO)c3[nH]ccc13)CN(c1ncc(C(C)C)cn1)CC2` [Example 1.098], the IC50 was less than 5 nM. The result for `CCc1cccc(CC)c1-n1nc2c(c1-c1ccc(Cl)c3[nH]ccc13)CN(c1ncc(Cl)cc1F)CC2` [Example 1.099] reads less than 5 nM.

On to `CCc1cccc(CC)c1-n1nc2c(c1-c1c(F)cc(CO)c3[nH]ccc13)CN(c1ccc(C(F)(F)F)cn1)CC2` [Example 1.100], for which the IC50 is less than 5 nM.

As to `CCc1cccc(CC)c1-n1nc2c(c1-c1c(F)cc(CO)c3[nH]ccc13)CN(c1ncc(C(F)(F)F)cn1)CC2` [Example 1.101], the IC50 was less than 5 nM.

Turning to `Cc1cccc(C)c1-n1nc2c(c1-c1cc(F)c(C)c3[nH]ccc13)CN(c1ncc(C(F)(F)F)cn1)CC2` [Example 1.102], the IC50 is 5 to 50 nM. The result for `Cc1cccc(C)c1-n1nc2c(c1-c1cc(F)c(C)c3[nH]ccc13)CN(c1ncc(C(F)(F)F)cc1F)CC2` [Example 1.103] reads 5 to 50 nM; that for `CCc1cccc(CC)c1-n1nc2c(c1-c1c(F)cc(CO)c3[nH]ccc13)CN(c1ncc(C(F)(F)F)cc1F)CC2` [Example 1.104], less than 5 nM; that for `Cc1cccc(C)c1-n1nc2c(c1-c1c(F)cc(Cl)c3[nH]ccc13)CN(c1ncc(C(C)C)cc1F)CC2` [Example 1.105], 5 to 50 nM.

In the case of `Cc1cccc(C)c1-n1nc2c(c1-c1c(F)cc(Cl)c3[nH]ccc13)CN(c1ccc(C(C)C)cn1)CC2` [Example 1.106], the IC50 was less than 5 nM. In the case of `Cc1cccc(C)c1-n1nc2c(c1-c1ccc(C)c3[nH]ccc13)CN(c1ncc(C(F)(F)F)cn1)CC2` [Example 1.107], the IC50 was in the range of 5 to 50 nM.

Turning to `Cc1cccc(C)c1-n1nc2c(c1-c1ccc(C)c3[nH]ccc13)CN(c1ncc(C(F)(F)F)cc1F)CC2` [Example 1.108], the IC50 was in the range of 5 to 50 nM. The result for `CCc1cccc(CC)c1-n1nc2c(c1-c1c(F)cc(Cl)c3[nH]ccc13)CN(c1ccc(C(C)C)cn1)CC2` [Example 1.109] reads less than 5 nM; that for `CCc1cccc(CC)c1-n1nc2c(c1-c1ccc(Cl)c3[nH]ccc13)CN(c1nccc(C)n1)CC2` [Example 1.110], 5 to 50 nM; that for `COc1cnc(N2CCc3nn(-c4c(C)cccc4C)c(-c4c(F)cc(Cl)c5[nH]ccc45)c3C2)nc1` [Example 1.111], 5 to 50 nM. As for `COc1cnc(N2CCc3nn(-c4c(C)cccc4C)c(-c4ccc(Cl)c5[nH]ccc45)c3C2)nc1` [Example 1.112], the 50% inhibitory concentration (IC50) fell in the range of 5 to 50 nM.

Turning to `CCc1cccc(CC)c1-n1nc2c(c1-c1ccc(Cl)c3[nH]ccc13)CN(c1nccc(OC)n1)CC2` [Example 1.113], the half-maximal inhibitory concentration (IC50) is less than 5 nM. The result for `COc1cnc(N2CCc3nn(-c4c(C)cccc4C)c(-c4ccc(C)c5[nH]ccc45)c3C2)nc1` [Example 1.114] reads 5 to 50 nM; that for `CCc1cccc(CC)c1-n1nc2c(c1-c1cc(F)c(C)c3[nH]ccc13)CN(c1ncc(C(C)C)cn1)CC2` [Example 1.115], less than 5 nM; that for `CCc1cccc(CC)c1-n1nc2c(c1-c1cc(F)c(F)c3[nH]ccc13)CN(c1ccc(C(F)(F)F)cn1)CC2` [Example 1.116], 5 to 50 nM. With `CCc1cccc(CC)c1-n1nc2c(c1-c1cc(F)c(F)c3[nH]ccc13)CN(c1ncc(C(C)C)cn1)CC2` [Example 1.117], the IC50 was 5 to 50 nM.

For `CCc1cccc(CC)c1-n1nc2c(c1-c1cc(F)c(F)c3[nH]ccc13)CN(c1ncc(C(F)(F)F)cn1)CC2` [Example 1.118], the IC50 was in the range of 5 to 50 nM. The result for `CCc1cccc(CC)c1-n1nc2c(c1-c1ccc(Cl)c3[nH]ncc13)CN(c1ncc(C(F)(F)F)cc1F)CC2` [Example 1.119] reads 5 to 50 nM; that for `CCc1cccc(CC)c1-n1nc2c(c1-c1cc(F)c(F)c3[nH]ccc13)CN(c1ncc(C(F)(F)F)cc1F)CC2` [Example 1.120], 5 to 50 nM; that for `CCc1cccc(CC)c1-n1nc2c(c1-c1ccc(Cl)c3[nH]ccc13)CN(c1ncc(Cl)c(OC)n1)CC2` [Example 1.121], 5 to 50 nM.
